Data set [1] relates to prostate and kidney cancer cells. The data set is described as follows: Cell growth inhibition / anti-proliferation (MTT). The class given is cell-based, human. An excerpt:
Results of MTT assays for compounds disclosed herein can be found in FIGS. 1, 2A-2C, 3, 4, 5, 6, 7, 8, 9, 10A-10C, and 11A-11C.

Data set [2] has as its system LNCaP and 22rv1 cell lines. The data set is described as follows: SAR statements on LNCaP and 22rv1 cell lines. The class given is cell-based. To be noted: LNCaP 1 μM, 22rv1 0.5 μM. How it is done: All compounds were evaluated for their effects on LNCaP and 22rv1 cell lines at 1 and 0.5 μM concentrations, respectively. […] For this purpose different analogues of B-3 with chain length varying from 0 to 4 carbon were synthesized (Table 1). […] In view of the availability of a variety of commercially available benzyl amines over phenyl propyl amines and method to functionalize analogues with 1C chain compound 14c was selected for further modification.

The test system of a further data set is LnCap cells. The data set is described as follows: Effect on LnCap cell viability. The conditions noted are these: 1 μM. The method, then: (§1) The initial interest was to see the importance of length of side chain on B-3. […] Relative cell growth can be assessed using the MTT (3-(4,5-dimethylthiazol-2-yl)-2,5-diphenyltetrazolium bromide) assay, a colorimetric assay for assessing cell metabolic activity. Cells (1000 to 2000 cells/well) in 150 μL culture medium were seeded in wells of a 96-well plate one day before various concentrations of drugs were added. After continuing culture in the presence of the drugs for the indicated time (3-4 days), 20 μL of 5 mg/mL MTT solution (Sigma-Aldrich) was added into each well. After incubation at 37° C. for 30 min, the culture medium was removed and 100 μL of DMSO was added to dissolve MTT crystals. Plates were shaken for 15 min at room temperature and absorbance at OD590 was read by plate reader.

For data set [3], the system named is castration resistant prostate cancer cell line 22RV1. The data set can be described thus: 22RV1 xenograft tumor growth in NOD/SCID mice. The conditions noted are these: in words. The class given is in vivo. The method, then: All animal work was approved by the Institutional Animal Care and Use Committee. NOD/SCID mice (6-8 weeks old) were subcutaneously injected in the flank region with castration resistant prostate cancer cell line 22RV1 (1×10^6 cells/site) mixed with 50% Matrigel (BD Biosciences). When tumor volumes reached 50-100 mm^3 in size, animals were randomly divided into 5 groups: control (DMSO); B3 (50 or 10 mg/kg in DMSO); SS-79N (20 or 10 mg/kg in DMSO). Each group included six mice. Tumor volume (cubic millimeters) was measured by caliper twice a week and calculated by using the ellipsoid formula (π/6×length×width×depth, see FIGS. 12A-12B).

The test system of data set [4] is KDM4B-regulated AR-V7 expression. The conditions noted are these: previous report; cited from earlier work.
The subject of data set [5] is cancer cell lines including PC3. The conditions noted are these: previous report; includes PC3 cells lacking AR; cited from earlier work.
The next data set concerns KDM4. The conditions noted are these: previous report; cited from earlier work.
A further data set concerns 22rv1. The data set can be described thus: Effect on 22rv1 cell viability. The conditions noted are these: Homo sapiens. The method, then: as §1

For `O=C(NCc1ccc(C(=O)NC2CCC(C(F)(F)F)CC2)cc1)c1cccc(-c2cc(O)c3ncccc3c2)c1` (centres unmarked) [Compound 17l], the “increase in potency compared to other 8-hydroxyquinoline-containing compounds, such as B3” value in data set [1] (IC50 versus B3) is listed as “more than 20 fold”. The “efficacy compared with the known GSK KDM6B inhibitor” value in data set [1] (in words) is given as “much better efficacy than the known GlaxoSmithKline (GSK) KDM6B inhibitor”. The molecule also had a concentration for half-maximal inhibition (IC50) in data set [1] (prostate and kidney cancer cells) of under 200 nM. For the same molecule, the “activity on cell lines, in words (SAR)” value in data set [2] is on record as “improved further”. Moreover, the “% Cell Viability of LnCap cells at 1 μM” value in the data set on LnCap cells amounted to 24.2%. Moreover, the in vivo efficacy result in data set [3] is on record as “favorable in vivo efficacy”.
`O=C(NCCCc1ccccc1)c1cccc(-c2cc(O)c3ncccc3c2)c1` [Compound B-3, reference compound]: the “inhibition of KDM4B-regulated AR-V7 expression, in words” value in data set [4] is “able to inhibit KDM4B-regulated AR-V7 expression”. The “effectiveness against cancer cell lines, in words” value in data set [5] is recorded as “highly effective against a variety of cancer cell lines including PC3”. Moreover, the “KDM4 inhibition, in words” value in the data set with KDM4 is “highly selective and potent KDM4 inhibitor”. Further, the viability at 0.5 µM with 22rv1 (22Rv1, read-out: % Cell Viability of 22rv1 at 0.5 μM) worked out at 63.6%. In addition, the viability at 1 µM in the data set on 22rv1 (22Rv1, read-out: % Cell Viability of 22rv1 at 1 μM) amounted to 42.5%.

Values taken from patent US12378201B2, “Histone demethylase inhibitors for treating cancers” (The Board of Regents of the University of Texas System, priority 2019, dated 2025).
